Measured values: patent US12295957B2, “Ascorbic acid and quinone compounds in combination with an antiparasitic agent for treating a parasitic disease” (IC-MedTech Corp., priority 2018, dated 2025)
“Also recorded” adds a separate entry of the source.

Key:
Format in all cases: in vivo, BALB/c mice
Trypanosoma cruzi [1] = test: Parasitemia by direct microscopic count of blood in mice infected with Trypanosoma cruzi; settings: 3-21 dpi
Experimental: (§1) Male BALB/c mice (approximately 7-8 weeks) were infected intraperitoneally with 10^4 parasites per mouse. Treatment started 24 hours after infection. The administration of vitamin C (i.e., L-ascorbic acid), vitamin K3 (i.e., 2-methyl-1,4-naphthoquinone or menadione), APATONE®, and benznidazole, alone or in combination, were administered once a day orally in different concentrations.
(§2) The mice were divided into the following groups and each group contained seven mice: • i. infected and not treated; • ii. infected and treated with 200 mg/kg of vitamin C; • iii. infected and treated with 3.5 mg/kg of vitamin K3; • iv. infected and treated with APATONE® (200 mg/kg of vitamin C and 3.5 mg/kg of vitamin K3); • v. infected and treated with APATONE® (200 mg/kg of vitamin C and 3.5 mg/kg of vitamin K3) plus 5 mg/kg benznidazole; • vi. infected and treated with benznidazole at 5 mg/kg; • vii. infected and treated with benznidazole at 100 mg/kg; and • viii. not infected and not treated.
Parasitemia levels were individually checked every day starting from 3 days postinfection (dpi) over a 21-day period by direct microscopic analysis of 5 μL blood drawn by puncture of the tail tip of each mouse. The parasites present in 50 fields were counted in 40× objective. Mortality was checked daily until 21 dpi and was expressed as a percentage of survival. […]

IL-6 = test: Heart cytokine level (cytokine bead array, flow cytometry) in T. cruzi infected mice: IL-6
Experimental: (§3) Cytokine analysis was performed on the mice infected with T. cruzi. A cytokine bead (CBA) kit was used to quantify the levels of Th1 cytokines (IL-2, TNF-α, and INF-γ), Th2 (IL-4, IL-5, and IL-10A), and Th17 (IL-17) by flow cytometry. Seven bead populations with different fluorescence intensities were conjugated to a specific capture antibody for each cytokine, mixed to the CBA and read […] FL3 channel of a FACSCalibur flow cytometer. The populations of beads were visualized according to their respective fluorescence intensities: from less bright to brighter.
(§4) Acquisition tubes were prepared with: 50 μL of a sample, 50 μL of beads, and 50 μL of Th1/Th2/Th17 PE (Mouse Th1/Th2/Th17 PE Detection Reagent/1 vial, 4 mL). The same procedure was performed to obtain a standard curve. The samples in the tubes were homogenized and incubated for three hours at room temperature in dark. The data acquisition and analysis were performed using a FACSCalibur flow cytometer equipped with a CellQuest software.
(§5) The levels of proinflammatory (IL-6, TNF-α, INF-γ, IL-2, and IL-17) and anti-inflammatory cytokines (IL-4 and IL-10) in heart (FIG. 3) in blood were determined on the mice infected with T. cruzi. […] However, the levels of IL-6 and TNF-α in this group were still high compared with the uninfected and untreated group. […] Thus, it is likely that the high levels of IL-6 and TNF-α in the mice infected with T. cruzi and treated with benznidazole (5 mg) are related to the inflammatory process induced by the parasite in the bloodstream. […] Thus, it is likely that the high levels of IL-6 and TNF-α in the mice infected with T. cruzi and treated with benznidazole (100 mg) are related to the proinflammatory activity of benznidazole (a side effect). […] The levels of IL-6, TNF-α, and IFN-γ in the group treated with APATONE® and benznidazole (5 mg/kg/day) in combination are similar to the levels of IL-6, TNF-α and IFN-γ in the uninfected and untreated group.

Trypanosoma cruzi [2] = test: Survival/mortality of mice with acute Trypanosoma cruzi infection; settings: for mortality: vitamin C 200 mg/kg or vitamin K3 3.5 mg/kg alone, orally once a day
Experimental: as §1, §2
Parasitemia levels were individually checked every day starting from 3 days postinfection (dpi) over a 21-day period by direct microscopic analysis of 5 μL blood drawn by puncture of the tail tip of each mouse. The parasites present in 50 fields were counted in 40× objective. Mortality was checked daily until 21 dpi and was expressed as a percentage of survival. All assays were carried out after the approval of the Ethical Conduct on the use of Animals in Experiments (CEAE) of UE111, protocol number CEUA 6642060717.

TNF-α = test: Heart cytokine level (cytokine bead array, flow cytometry) in T. cruzi infected mice: TNF-α
Experimental: as §3, §4, §5

[3] = benznidazole alone at 5 mg/kg, seven mice per group, until 21 dpi

With O=C(Cn1ccnc1[N+](=O)[O-])NCc1ccccc1 [benznidazole] the “parasites in the bloodstream (parasitemia)” value (Trypanosoma cruzi [1]; benznidazole alone at 5 mg/kg orally once a day, 5 mg/kg) was “did not decrease the amount of parasites”, the “parasites in the bloodstream (parasitemia)” value (Trypanosoma cruzi [1]; benznidazole alone at 100 mg/kg orally once a day, 100 mg/kg) was “no parasite was observed; also recorded: no parasite detected” and the “level of IL-6 in heart compared with the infected and untreated group” value (IL-6; benznidazole at 5 mg) was “significant decrease”. For the same compound, the “level of IL-6 in heart compared with the uninfected and untreated group” value (IL-6; benznidazole at 5 mg) was “still high”, the “level of IL-6 in heart compared with the infected and untreated group” value (IL-6; benznidazole at 100 mg) was “significant decrease” and the “level of IL-6 in heart compared with the uninfected and untreated group” value (IL-6; benznidazole at 100 mg) was “still high”. The mice remaining (Trypanosoma cruzi [2]; [3]) was 4 mice, the mice that died (Trypanosoma cruzi [2]; [3]) was “Three mice died” and the mice that died (Trypanosoma cruzi [2]; benznidazole alone at 100 mg/kg, until 21 dpi) was “No mice died”. The “level of TNF-α in heart compared with the infected and untreated group” value (TNF-α; benznidazole at 5 mg) was “significant decrease”, the “level of TNF-α in heart compared with the uninfected and untreated group” value (TNF-α; benznidazole at 5 mg) was “still high” and the “level of TNF-α in heart compared with the infected and untreated group” value (TNF-α; benznidazole at 100 mg) was “significant decrease”. The “level of TNF-α in heart compared with the uninfected and untreated group” value (TNF-α; benznidazole at 100 mg) was “still high”.
O=C1O[C@H]([C@@H](O)CO)C(O)=C1O [vitamin C, L-ascorbic acid] was tested, and the mortality (Trypanosoma cruzi [2]) was “died from day 14”.
For CC1=CC(=O)c2ccccc2C1=O [vitamin K3, 2-methyl-1,4-naphthoquinone], the mortality (Trypanosoma cruzi [2]) was “died from day 14”.
